{"source": "paper PMC8959664", "about": "“Elucidating Therapeutic and Biological Potential of Berberis baluchistanica Ahrendt Bark, Leaf, and Root Extracts” (Frontiers in Microbiology, 2022)", "tested_on": "T1, trypsin", "T1 construct": "gene PRSS1; commercial-type enzyme; bovine is only a guess (porcine equally possible)", "test": "casein digestion, perchloric acid precipitation, absorbance […] nm", "assay_type": "biochemical", "details": "casein 0.8% substrate, Tris-HCl pH 7.4, 37°C, 5 min preincubation"}
{"smiles": "CC(=O)Oc1ccccc1C(=O)O", "note": "[aspirin]", "values": [{"measurement": "Protein inhibition denaturation IC50", "value": "430 ± 100", "unit": "µg/mL"}]}
